How the values were obtained:
Assay type in all cases: in vivo
Spodoptera littoralis = Spodoptera littoralis (Egyptian cotton leaf worm) cotton leaf disc test; details: foliar, 72 h, read-out: control (at least one of mortality, anti-feedant effect, and growth inhibition)
Summary of the method: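 Cotton leaf discs on agar were sprayed with aqueous dilutions of 10′000 ppm DMSO stocks, dried and infested with five L1 larvae. Mortality, anti-feedant effect and growth inhibition were scored against untreated samples 3 days after infestation. Control = any of these higher than untreated.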

Plutella xylostella = Plutella xylostella (diamond back moth) artificial diet test; details: 120 h, read-out: effect in at least one of the two categories (mortality or growth inhibition)
Summary of the method: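 Artificial diet treated with aqueous compound solutions made from DMSO stocks, dried, then infested with L2 larvae (10 to 15 per well). Mortality and growth inhibition scored versus untreated controls 5 days after infestation. Application rate 200 ppm.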

Diabrotica Balteata = test: Diabrotica balteata (corn root worm) maize sprout test; details: 96 h, read-out: effect in at least one of the two categories (mortality or growth inhibition)
Summary of the method: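 Maize sprouts on agar were sprayed with aqueous test solutions made from 10′000 ppm DMSO stocks, dried, then infested with 6 to 10 L2 larvae per well. Mortality and growth inhibition versus untreated samples were assessed 4 days after infestation; application rate 200 ppm.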

Thrips tabaci = Thrips tabaci (onion thrips) sunflower leaf disc test; details: foliar, 144 h
Method: Thrips tabaci (Onion Thrips):
(§1) Sunflower leaf discs were placed on agar in 24-well microtiter plates and sprayed with aqueous test solutions prepared from 10′000 ppm DMSO stock solutions. After drying the leaf discs were infested with a thrips population of mixed ages. The samples were assessed for mortality 6 days after infestation.

Tetranychus urticae = Tetranychus urticae (two-spotted spider mite) bean leaf disc test; details: foliar, 192 h
Method: Tetranychus urticae (Two-Spotted Spider Mite):
as §1, with “Bean” for “Sunflower”, “discs” for “discs were placed”, “were” for “and”, “mite” for “thrips”, “on mixed population (mobile stages) 8” for “6”

Myzus persicae = Myzus persicae (green peach aphid) sunflower leaf disc test; details: foliar, 144 h
Method: Myzus persicae (Green Peach Aphid):
Sunflower leaf discs were placed on agar in a 24-well microtiter plate and sprayed with test solutions at an application rate of 200 ppm. After drying, the leaf discs were infested with an aphid population of mixed ages. After an incubation period of 6 days after treatment, samples were checked for mortality. The following compounds gave at least 80% mortality of Myzus persicae: […]

CCOCCOC1=NOC(NC(=O)c2ccc(C3=NO[C@@](c4cc(Cl)c(Cl)c(Cl)c4)(C(F)(F)F)C3)cc2C)C1 (stereo partly drawn) [Compound A107, N-[3-(2-ethoxyethoxy)-4,5-dihydroisoxazol-5-yl]-2-methyl-4-[(5S)-5-(3,4,5-trichlorophenyl)-5-(trifluoromethyl)-4H-isoxazol-3-yl]benzamide]
≥ 80%: percent control (mortality, anti-feedant effect or growth inhibition) at 200 ppm (Spodoptera littoralis) | percent effect (mortality or growth inhibition) at 200 ppm (Plutella xylostella) | percent effect (mortality or growth inhibition) at 200 ppm (Diabrotica Balteata) | mortality at 200 ppm (Thrips tabaci) | mortality at 200 ppm (Tetranychus urticae) | mortality at 200 ppm (Myzus persicae)

Cc1cc(C2=NO[C@@](c3cc(Cl)c(F)c(Cl)c3)(C(F)(F)F)C2)ccc1C(=O)NC1CC(OCC2CC2)=NO1 (stereo partly drawn) [Compound A083]
≥ 80%: percent control (mortality, anti-feedant effect or growth inhibition) at 200 ppm (Spodoptera littoralis) | percent effect (mortality or growth inhibition) at 200 ppm (Plutella xylostella) | percent effect (mortality or growth inhibition) at 200 ppm (Diabrotica Balteata) | mortality at 200 ppm (Thrips tabaci) | mortality at 200 ppm (Tetranychus urticae) | mortality at 200 ppm (Myzus persicae)

COC1=NOC(NC(=O)c2ccc(C3=NO[C@@](c4cc(Cl)cc(Cl)c4)(C(F)(F)F)C3)cc2Cl)C1 (stereo partly drawn) [Compound A062]
≥ 80%: percent control (mortality, anti-feedant effect or growth inhibition) at 200 ppm (Spodoptera littoralis) | percent effect (mortality or growth inhibition) at 200 ppm (Plutella xylostella) | percent effect (mortality or growth inhibition) at 200 ppm (Diabrotica Balteata) | mortality at 200 ppm (Thrips tabaci) | mortality at 200 ppm (Tetranychus urticae) | mortality at 200 ppm (Myzus persicae)

Cc1cc(C2=NO[C@@](c3cc(Cl)c(F)c(Cl)c3)(C(F)(F)F)C2)ccc1C(=O)NC1CC(OC2CCC2)=NO1 (stereo partly drawn) [Compound A079]
≥ 80%: percent control (mortality, anti-feedant effect or growth inhibition) at 200 ppm (Spodoptera littoralis) | percent effect (mortality or growth inhibition) at 200 ppm (Plutella xylostella) | percent effect (mortality or growth inhibition) at 200 ppm (Diabrotica Balteata) | mortality at 200 ppm (Thrips tabaci) | mortality at 200 ppm (Tetranychus urticae) | mortality at 200 ppm (Myzus persicae)

COC1=NO[C@@H](NC(=O)c2ccc(C3=NO[C@@](c4cc(Cl)c(Cl)c(Cl)c4)(C(F)(F)F)C3)cc2C)C1 (single isomer, unassigned) [Compound A149]
≥ 80%: percent control (mortality, anti-feedant effect or growth inhibition) at 200 ppm (Spodoptera littoralis) | percent effect (mortality or growth inhibition) at 200 ppm (Plutella xylostella) | percent effect (mortality or growth inhibition) at 200 ppm (Diabrotica Balteata) | mortality at 200 ppm (Thrips tabaci) | mortality at 200 ppm (Tetranychus urticae) | mortality at 200 ppm (Myzus persicae)

CCOC1=NOC(NC(=O)c2ccc(C3=NO[C@@](c4cc(Cl)cc(Cl)c4)(C(F)(F)F)C3)cc2C)C1 (stereo partly drawn) [Compound A061, 4-[(5S)-5-(3,5-dichlorophenyl)-5-(trifluoromethyl)-4H-isoxazol-3-yl]-N-(3-ethoxy-4,5-dihydroisoxazol-5-yl)-2-methyl-benzamide]
≥ 80%: percent control (mortality, anti-feedant effect or growth inhibition) at 200 ppm (Spodoptera littoralis) | percent effect (mortality or growth inhibition) at 200 ppm (Plutella xylostella) | percent effect (mortality or growth inhibition) at 200 ppm (Diabrotica Balteata) | mortality at 200 ppm (Thrips tabaci) | mortality at 200 ppm (Tetranychus urticae) | mortality at 200 ppm (Myzus persicae)

CCOC1=NOC(NC(=O)c2ccc(C3=NO[C@@](c4cc(Cl)c(F)c(Cl)c4)(C(F)(F)F)C3)cc2Cl)C1 (stereo partly drawn) [Compound A064]
≥ 80%: percent control (mortality, anti-feedant effect or growth inhibition) at 200 ppm (Spodoptera littoralis) | percent effect (mortality or growth inhibition) at 200 ppm (Plutella xylostella) | percent effect (mortality or growth inhibition) at 200 ppm (Diabrotica Balteata) | mortality at 200 ppm (Thrips tabaci) | mortality at 200 ppm (Tetranychus urticae) | mortality at 200 ppm (Myzus persicae)

CCC1(COC2=NOC(NC(=O)c3ccc(C4=NO[C@@](c5cc(Cl)c(Cl)c(Cl)c5)(C(F)(F)F)C4)cc3C)C2)COC1 (stereo partly drawn) [Compound A122, N-[3-[(3-ethyloxetan-3-yl)methoxy]-4,5-dihydroisoxazol-5-yl]-2-methyl-4-[(5S)-5-(3,4,5-trichlorophenyl)-5-(trifluoromethyl)-4H-isoxazol-3-yl]benzamide]
≥ 80%: percent control (mortality, anti-feedant effect or growth inhibition) at 200 ppm (Spodoptera littoralis) | percent effect (mortality or growth inhibition) at 200 ppm (Plutella xylostella) | percent effect (mortality or growth inhibition) at 200 ppm (Diabrotica Balteata) | mortality at 200 ppm (Thrips tabaci) | mortality at 200 ppm (Tetranychus urticae) | mortality at 200 ppm (Myzus persicae)

CC1=NOC(N(C=O)C(=O)c2ccc(C3=NO[C@@](c4cc(Cl)c(Cl)c(Cl)c4)(C(F)(F)F)C3)cc2C)C1 (stereo partly drawn) [Compound A023, N-formyl-2-methyl-N-(3-methyl-4,5-dihydroisoxazol-5-yl)-4-[(5S)-5-(3,4,5-trichlorophenyl)-5-(trifluoromethyl)-4H-isoxazol-3-yl]benzamide]
≥ 80%: percent control (mortality, anti-feedant effect or growth inhibition) at 200 ppm (Spodoptera littoralis) | percent effect (mortality or growth inhibition) at 200 ppm (Plutella xylostella) | percent effect (mortality or growth inhibition) at 200 ppm (Diabrotica Balteata) | mortality at 200 ppm (Thrips tabaci) | mortality at 200 ppm (Tetranychus urticae) | mortality at 200 ppm (Myzus persicae)

CO/N=C(\C)COC1=NOC(NC(=O)c2ccc(C3=NO[C@@](c4cc(Cl)c(Cl)c(Cl)c4)(C(F)(F)F)C3)cc2C)C1 (stereo partly drawn) [Compound A116, N-[3-[(2E)-2-methoxyiminopropoxy]-4,5-dihydroisoxazol-5-yl]-2-methyl-4-[(5S)-5-(3,4,5-trichlorophenyl)-5-(trifluoromethyl)-4H-isoxazol-3-yl]benzamide]
≥ 80%: percent control (mortality, anti-feedant effect or growth inhibition) at 200 ppm (Spodoptera littoralis) | percent effect (mortality or growth inhibition) at 200 ppm (Plutella xylostella) | percent effect (mortality or growth inhibition) at 200 ppm (Diabrotica Balteata) | mortality at 200 ppm (Thrips tabaci) | mortality at 200 ppm (Tetranychus urticae) | mortality at 200 ppm (Myzus persicae)

Cc1cc(C2=NO[C@@](c3cc(Cl)cc(Cl)c3)(C(F)(F)F)C2)ccc1C(=O)NC1CC(C(F)(F)F)=NO1 (stereo partly drawn) [Compound A136, 4-[(5S)-5-(3,5-dichlorophenyl)-5-(trifluoromethyl)-4H-isoxazol-3-yl]-2-methyl-N-[3-(trifluoromethyl)-4,5-dihydroisoxazol-5-yl]benzamide]
≥ 80%: percent control (mortality, anti-feedant effect or growth inhibition) at 200 ppm (Spodoptera littoralis) | percent effect (mortality or growth inhibition) at 200 ppm (Plutella xylostella) | percent effect (mortality or growth inhibition) at 200 ppm (Diabrotica Balteata) | mortality at 200 ppm (Thrips tabaci) | mortality at 200 ppm (Tetranychus urticae) | mortality at 200 ppm (Myzus persicae)

C=C(F)COC1=NOC(NC(=O)c2ccc(C3=NO[C@@](c4cc(Cl)c(F)c(Cl)c4)(C(F)(F)F)C3)cc2C)C1 (stereo partly drawn) [Compound A081]
≥ 80%: percent control (mortality, anti-feedant effect or growth inhibition) at 200 ppm (Spodoptera littoralis) | percent effect (mortality or growth inhibition) at 200 ppm (Plutella xylostella) | percent effect (mortality or growth inhibition) at 200 ppm (Diabrotica Balteata) | mortality at 200 ppm (Thrips tabaci) | mortality at 200 ppm (Tetranychus urticae) | mortality at 200 ppm (Myzus persicae)

CCSC1=NOC(NC(=O)c2ccc(C3=NO[C@@](c4cc(Cl)cc(C(F)(F)F)c4)(C(F)(F)F)C3)cc2C)C1 (stereo partly drawn) [Compound A051]
≥ 80%: percent control (mortality, anti-feedant effect or growth inhibition) at 200 ppm (Spodoptera littoralis) | percent effect (mortality or growth inhibition) at 200 ppm (Plutella xylostella) | percent effect (mortality or growth inhibition) at 200 ppm (Diabrotica Balteata) | mortality at 200 ppm (Thrips tabaci) | mortality at 200 ppm (Tetranychus urticae) | mortality at 200 ppm (Myzus persicae)

CCOC1=NOC(N(C=O)C(=O)c2ccc(C3=NO[C@@](c4cc(Cl)cc(Cl)c4)(C(F)(F)F)C3)cc2C)C1 (stereo partly drawn) [Compound A133, 4-[(5S)-5-(3,5-dichlorophenyl)-5-(trifluoromethyl)-4H-isoxazol-3-yl]-N-(3-ethoxy-4,5-dihydroisoxazol-5-yl)-N-formyl-2-methyl-benzamide]
≥ 80%: percent control (mortality, anti-feedant effect or growth inhibition) at 200 ppm (Spodoptera littoralis) | percent effect (mortality or growth inhibition) at 200 ppm (Plutella xylostella) | percent effect (mortality or growth inhibition) at 200 ppm (Diabrotica Balteata) | mortality at 200 ppm (Thrips tabaci) | mortality at 200 ppm (Tetranychus urticae) | mortality at 200 ppm (Myzus persicae)

CC(=O)C1=NOC(N(C=O)C(=O)c2ccc(C3=NO[C@@](c4cc(Cl)c(F)c(Cl)c4)(C(F)(F)F)C3)cc2C)C1 (stereo partly drawn) [Compound A014, N-(3-acetyl-4,5-dihydroisoxazol-5-yl)-4-[(5S)-5-(3,5-dichloro-4-fluoro-phenyl)-5-(trifluoromethyl)-4H-isoxazol-3-yl]-N-formyl-2-methyl-benzamide]
≥ 80%: percent control (mortality, anti-feedant effect or growth inhibition) at 200 ppm (Spodoptera littoralis) | percent effect (mortality or growth inhibition) at 200 ppm (Plutella xylostella) | percent effect (mortality or growth inhibition) at 200 ppm (Diabrotica Balteata) | mortality at 200 ppm (Thrips tabaci) | mortality at 200 ppm (Tetranychus urticae) | mortality at 200 ppm (Myzus persicae)

Cc1cc(C2=NO[C@@](c3cc(Cl)c(F)c(Cl)c3)(C(F)(F)F)C2)ccc1C(=O)N(C=O)C1CC(C(F)(F)F)=NO1 (stereo partly drawn) [Compound A004, 4-[(5S)-5-(3,5-dichloro-4-fluoro-phenyl)-5-(trifluoromethyl)-4H-isoxazol-3-yl]-N-formyl-2-methyl-N-[3-(trifluoromethyl)-4,5-dihydroisoxazol-5-yl]benzamide]
≥ 80%: percent control (mortality, anti-feedant effect or growth inhibition) at 200 ppm (Spodoptera littoralis) | percent effect (mortality or growth inhibition) at 200 ppm (Plutella xylostella) | percent effect (mortality or growth inhibition) at 200 ppm (Diabrotica Balteata) | mortality at 200 ppm (Thrips tabaci) | mortality at 200 ppm (Tetranychus urticae) | mortality at 200 ppm (Myzus persicae)

CC1=NOC(N(C=O)C(=O)c2ccc(C3=NO[C@@](c4cc(Cl)c(F)c(Cl)c4)(C(F)(F)F)C3)cc2C)C1 (stereo partly drawn) [Compound A008, 4-[(5S)-5-(3,5-dichloro-4-fluoro-phenyl)-5-(trifluoromethyl)-4H-isoxazol-3-yl]-N-formyl-2-methyl-N-(3-methyl-4,5-dihydroisoxazol-5-yl)benzamide]
≥ 80%: percent control (mortality, anti-feedant effect or growth inhibition) at 200 ppm (Spodoptera littoralis) | percent effect (mortality or growth inhibition) at 200 ppm (Plutella xylostella) | percent effect (mortality or growth inhibition) at 200 ppm (Diabrotica Balteata) | mortality at 200 ppm (Thrips tabaci) | mortality at 200 ppm (Tetranychus urticae) | mortality at 200 ppm (Myzus persicae)

From patent publication US10499642B2, “Isoxazoline-substituted benzamides and analogues as insecticides” (SYNGENTA PARTICIPATIONS AG, priority 2015, dated 2019)
